This note sets out measurements from US10913753B2, “Thienopyridine carboxamides as ubiquitin-specific protease inhibitors” (FORMA Therapeutics, Inc., priority 2016, dated 2021).

One test concerns the target USP28 (Homo sapiens (Human), UniProt Q96RU2). Description: Ubiquitin-Rhodamine 110 Assay for USP28 Activity. It counts as biochemical. The protocol: The assay was performed in a final volume of 20 μL in assay buffer containing 20 mM Tris-HCl (pH 8.0, (1M Tris-HCl, pH 8.0 solution; Corning 46-031-CM)), 2 mM CaCl2 (1M Calcium Chloride solution; Sigma #21114) 2 mM BME (2-Mercaptoethanol; Sigma 63689-25ML -F), 0.01% Prionex (0.22 μM filtered, Sigma #G-0411), and 0.01% Triton X-100. Stock compound solutions were stored at −20° C. as 10 mM in DMSO. Up to 1 month prior to the assay, 2 mM test compounds were pre-dispensed into assay plates (Black, low volume; Corning #3820) and frozen at −20° C. Prestamped assay plates were allowed to come to room temperature on the day of the assay. For the screen, 100 nL of 2 mM was pre-dispensed for a final screening concentration of 10 μM (DMSO(fc)=0.5%). […] Plates were incubated stacked for 90 minutes at room temperature before fluorescence was read on the Envision (Excitation at 485 nm and Emission at 535 nm; Perkin Elmer) or on the PheraSTAR (Excitation at 485 nm and Emission at 535 nm; BMG Labtech).
For follow-up studies, the assay was performed in a final volume of 15 μL in assay buffer containing 20 mM Tris-HCl (pH 8.0, (1M Tris-HCl, pH 8.0 solution; Corning 46-031-CM)), 3 mM BME (2-Mercaptoethanol; Sigma 63689-25ML-F), 0.03% BGG (0.22 μM filtered, Sigma, G7516-25G), and 0.01% Triton X-100 (Sigma, T9284-10L). Nanoliter quantities of either an 8-point or 10-point, 3-fold serial dilution in DMSO was pre-dispensed into assay plates (Perkin Elmer, ProxiPlate-384 F Plus) for a final test concentration of either 25 μM to 11 nM or 25 μM to 1.3 nM, respectively. Enzyme USP28, construct USP28 (USP28-5(1-1077)-TEV-6*His; LifeSensors) concentration and incubation times were optimized for the maximal signal-to -background while maintaining initial velocity conditions at a fixed substrate concentration. The final concentration of the enzyme in the assay was 75 pM. […] 5 μL of 2× enzyme was added to assay plates (pre-stamped with compound) preincubated with USP28 for 30 minutes and then 5 μL of 2× Ub-Rh110 was added to assay plates. Plates were incubated stacked for 20 min at room temperature before 5 μL of stop solution was added (final concentration of 10 mM citric acid (Sigma, 251275-500G)). Fluorescence was read on the Envision (Excitation at 485 nm and Emission at 535 nm; Perkin Elmer) or on the PheraSTAR (Excitation at 485 nm and Emission at 535 nm; BMG Labtech).
(§1) For both the USP28 and USP25 assay formats, data were reported as percent inhibition compared with control wells based on the following equation: % inh=1-((FLU-AveLow)/(AveHigh−AveLow)) where FLU=measured Fluorescence, AveLow=average Fluorescence of no enzyme control (n=16), and AveHigh=average Fluorescence of DMSO control (n=16). IC50 values were determined by curve fitting of the standard 4 parameter logistic fitting algorithm included in the Activity Base software package: IDBS XE Designer Model205. Data is fitted using the Levenburg Marquardt algorithm.

The next test addresses USP25 (Homo sapiens (Human), UniProt Q9UHP3). Description: Ubiquitin-Rhodamine 110 Assay for USP25 Activity. It counts as biochemical. As to the method: The assay was performed in a final volume of 9 μL in assay buffer containing 20 mM Tris-HCl (pH 8.0, (1M Tris-HC1, pH 8.0 solution; Corning 46-031-CM)), 3 mM BME (2-Mercaptoethanol; Sigma 63689-25ML-F), 0.03% BGG (0.22 μM filtered, Sigma, G7516-25G), and 0.01% Triton X-100 (Sigma, T9284-10L). Nanoliter quantities of 10-point, 3-fold serial dilution in DMSO was pre-dispensed into 1536 assay plates (Corning, #3724BC) for a final test concentration of 25 μM to 1.3 nM, top to lowest dose, respectively. Enzyme USP25, construct USP25-His6, (Boston Biochem E-546). Concentration and incubation times were optimized for the maximal signal-to-background while maintaining initial velocity conditions at a fixed substrate concentration. The final concentration of the enzyme in the assay was 75 pM. […] 3 μL of 2× enzyme was added to assay plates (pre-stamped with compound) preincubated with […] for 30 minutes and then 3 μL of 2× Ub-Rh110 was added to assay plates. Plates were incubated for 45 minutes at room temperature before addition of 3 μL of stop solution (final concentration of 10 mM citric acid (Sigma, 251275-500G)). Fluorescence was read on the Envision (Excitation at 485 nm and Emission at 535 nm; Perkin Elmer) or on the PheraSTAR (Excitation at 485 nm and Emission at 535 nm; BMG Labtech).
as §1

Chain of USP25 (Q9UHP3 whole entry): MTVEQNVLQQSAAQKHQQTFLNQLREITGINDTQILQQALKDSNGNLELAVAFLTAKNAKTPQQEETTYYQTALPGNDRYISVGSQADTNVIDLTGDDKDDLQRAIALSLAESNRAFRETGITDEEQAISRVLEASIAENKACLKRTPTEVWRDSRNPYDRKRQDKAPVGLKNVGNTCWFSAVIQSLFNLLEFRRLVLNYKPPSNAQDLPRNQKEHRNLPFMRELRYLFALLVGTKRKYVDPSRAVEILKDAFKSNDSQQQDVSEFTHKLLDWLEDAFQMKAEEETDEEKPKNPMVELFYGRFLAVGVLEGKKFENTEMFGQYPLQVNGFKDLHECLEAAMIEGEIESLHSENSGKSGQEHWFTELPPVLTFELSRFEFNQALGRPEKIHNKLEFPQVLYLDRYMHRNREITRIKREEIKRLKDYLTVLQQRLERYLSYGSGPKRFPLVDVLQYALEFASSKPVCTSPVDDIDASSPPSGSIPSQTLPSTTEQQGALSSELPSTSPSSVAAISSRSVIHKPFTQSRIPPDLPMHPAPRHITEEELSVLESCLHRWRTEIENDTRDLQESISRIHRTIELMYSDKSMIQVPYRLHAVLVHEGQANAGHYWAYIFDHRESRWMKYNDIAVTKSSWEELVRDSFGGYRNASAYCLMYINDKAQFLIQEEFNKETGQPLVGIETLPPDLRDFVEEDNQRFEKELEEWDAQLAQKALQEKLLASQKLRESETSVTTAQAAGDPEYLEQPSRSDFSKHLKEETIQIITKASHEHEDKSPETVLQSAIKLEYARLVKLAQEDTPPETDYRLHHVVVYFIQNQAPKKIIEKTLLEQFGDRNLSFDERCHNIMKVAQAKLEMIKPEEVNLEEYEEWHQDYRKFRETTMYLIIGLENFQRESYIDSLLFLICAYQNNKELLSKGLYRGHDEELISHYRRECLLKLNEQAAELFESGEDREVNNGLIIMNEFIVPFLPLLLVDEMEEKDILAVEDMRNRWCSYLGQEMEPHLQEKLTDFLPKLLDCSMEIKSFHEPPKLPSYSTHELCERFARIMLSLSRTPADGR
Chain of USP28 (Q96RU2 whole entry): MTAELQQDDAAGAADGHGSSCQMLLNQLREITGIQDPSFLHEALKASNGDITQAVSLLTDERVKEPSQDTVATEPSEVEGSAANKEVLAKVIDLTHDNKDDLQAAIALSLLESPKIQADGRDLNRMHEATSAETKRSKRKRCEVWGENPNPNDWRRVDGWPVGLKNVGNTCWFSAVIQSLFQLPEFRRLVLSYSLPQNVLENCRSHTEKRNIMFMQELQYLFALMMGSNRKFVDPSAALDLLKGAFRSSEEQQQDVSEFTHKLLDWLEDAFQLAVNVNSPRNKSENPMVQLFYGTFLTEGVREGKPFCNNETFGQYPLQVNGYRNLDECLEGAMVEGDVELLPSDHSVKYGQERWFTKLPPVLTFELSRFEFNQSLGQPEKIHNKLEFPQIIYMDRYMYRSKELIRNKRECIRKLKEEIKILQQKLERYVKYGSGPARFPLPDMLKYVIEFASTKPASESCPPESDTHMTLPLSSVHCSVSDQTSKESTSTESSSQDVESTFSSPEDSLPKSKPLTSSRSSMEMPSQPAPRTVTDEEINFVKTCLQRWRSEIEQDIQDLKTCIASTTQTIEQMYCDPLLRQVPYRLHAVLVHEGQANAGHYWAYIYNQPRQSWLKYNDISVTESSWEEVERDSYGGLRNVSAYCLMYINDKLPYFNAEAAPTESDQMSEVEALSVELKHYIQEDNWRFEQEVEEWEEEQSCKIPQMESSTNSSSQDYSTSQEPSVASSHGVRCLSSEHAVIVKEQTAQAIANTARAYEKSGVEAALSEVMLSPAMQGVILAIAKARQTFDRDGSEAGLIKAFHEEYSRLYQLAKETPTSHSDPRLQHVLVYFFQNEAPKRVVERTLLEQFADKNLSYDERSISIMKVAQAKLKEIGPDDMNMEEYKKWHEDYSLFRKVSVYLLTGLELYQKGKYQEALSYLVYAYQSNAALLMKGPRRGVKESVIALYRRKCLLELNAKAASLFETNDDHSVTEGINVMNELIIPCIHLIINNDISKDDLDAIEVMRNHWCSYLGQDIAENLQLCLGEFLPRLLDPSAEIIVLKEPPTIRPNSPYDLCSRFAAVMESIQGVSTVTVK

A word on the IC50: it is the concentration needed to halve the response being measured. With `Cc1nc2sc(C(=O)NC[C@@H](C)c3ccc(N4CC5CCC(C4)N5)c(F)c3)c(N)c2cc1F` (single isomer, unassigned) [Example I-107], the IC50 against USP28 lay within 200 to 2000 nM; against USP25, 10000 to 25000 nM.
For `Cc1nc2sc(C(=O)NC[C@H](C)c3ccc(N4CC5CCC(C4)N5)c(F)c3)c(N)c2cc1F` (single isomer, unassigned) [Example I-108] the same measures were 200 to 2000 nM and 200 to 2000 nM.
As for `Cc1ccc2c(N)c(C(=O)NC[C@@H](C)c3ccc(N4CC5CCC(C4)N5)c(C#N)c3)sc2n1` (single isomer, unassigned) [Example I-109], the half-maximal inhibitory concentration (IC50) against USP28 fell in the range of 200 to 2000 nM; at USP25, 2000 to 10000 nM.
Consider `Cc1ccc2c(N)c(C(=O)NC[C@H](C)c3ccc(N4CC5CCC(C4)N5)c(C#N)c3)sc2n1` (single isomer, unassigned) [Example I-110], for which the values for the IC50 against USP28 and against USP25 were 200 to 2000 nM and 2000 to 10000 nM, respectively.
For `Cc1nc2sc(C(=O)NC[C@@H](C)c3cc(F)c(N4CC5CCC(C4)N5)cc3F)c(N)c2cc1F` (single isomer, unassigned) [Example I-111] the same measures were < 200 nM and 200 to 2000 nM.
The like results for `Cc1nc2sc(C(=O)NC[C@H](C)c3cc(F)c(N4CC5CCC(C4)N5)cc3F)c(N)c2cc1F` (single isomer, unassigned) [Example I-112] were, in that order, 200 to 2000 nM and 2000 to 10000 nM.
As to `Cc1ccc2c(N)c(C(=O)NCCc3ccc(C4CC5CCC(C4)N5)cc3)sc2n1` (single isomer, unassigned) [Example I-171, N-(4-(8-azabicyclo[3.2.1]octan-3-yl)phenethyl)-3-amino-6-methylthieno[2,3-b]pyridine-2-carboxamide], the IC50 on USP28 and at USP25 was 200 to 2000 nM throughout.
As for `Cc1ccc2c(N)c(C(=O)NCCc3ccc(C4CC5CCC(C4)N5)cc3)sc2n1` (single isomer, unassigned) [Example I-172, N-(4-(8-azabicyclo[3.2.1]octan-3-yl)phenethyl)-3-amino-6-methylthieno[2,3-b]pyridine-2-carboxamide], the IC50 against USP28 and on USP25 was < 200 nM throughout.
In the case of `Cc1ccc2c(N)c(C(=O)NCCc3ccc([C@H]4CCNC4)cc3)sc2n1` (single isomer, unassigned) [Example I-180], the values for the IC50 against USP28 and on USP25 were < 200 nM and 200 to 2000 nM, respectively.
As for `Cc1ccc2c(N)c(C(=O)NCCc3ccc([C@@H]4CCNC4)cc3)sc2n1` (single isomer, unassigned) [Example I-181], the IC50 at USP28 is < 200 nM; on USP25, 200 to 2000 nM.
The like results for `CN[C@@H]1CN(c2cc(F)c(CCNC(=O)c3sc4nc(C)ccc4c3N)cc2F)C[C@@H]1F` (single isomer, unassigned) [Example I-211] were, in that order, 200 to 2000 nM and 2000 to 10000 nM.
As to `CN[C@H]1CN(c2cc(F)c(CCNC(=O)c3sc4nc(C)ccc4c3N)cc2F)C[C@H]1F` (single isomer, unassigned) [Example I-212], the IC50 against USP28 and against USP25 was 200 to 2000 nM throughout.
For `CN[C@@H]1CN(c2cc(F)c(CCNC(=O)c3sc4nc(C)ccc4c3N)cc2F)C[C@H]1F` (single isomer, unassigned) [Example I-213], the IC50 on USP28 and against USP25 was 200 to 2000 nM in each case.
For the compound `CN[C@H]1CN(c2cc(F)c(CCNC(=O)c3sc4nc(C)ccc4c3N)cc2F)C[C@@H]1F` (single isomer, unassigned) [Example I-214], the IC50 at USP28 is 200 to 2000 nM; against USP25, 2000 to 10000 nM.
Consider `Cc1ccc2c(N)c(C(=O)NCCc3ccc(N4CCC5(CCCNC5)C4)cc3)sc2n1` (single isomer, unassigned) [Example I-216], for which the IC50 at USP28 and at USP25 was 200 to 2000 nM each time.
As for `Cc1ccc2c(N)c(C(=O)NCCc3ccc(O[C@@H]4COC5(CNC5)C4)cc3)sc2n1` (single isomer, unassigned) [Example I-218], the IC50 on USP28 and at USP25 was 200 to 2000 nM throughout.
In the case of `Cc1ccc2c(N)c(C(=O)NCCc3ccc(O[C@H]4COC5(CNC5)C4)cc3)sc2n1` (single isomer, unassigned) [Example I-219], the IC50 on USP28 and at USP25 was 200 to 2000 nM each time.
As for `C[C@H](O)c1ccc2c(N)c(C(=O)NCCc3ccc(N4CCNCC4)cc3)sc2n1` (single isomer, unassigned) [Example I-221], the IC50 on USP28 and against USP25 was 10000 to 25000 nM in each case.
With `C[C@@H](O)c1ccc2c(N)c(C(=O)NCCc3ccc(N4CCNCC4)cc3)sc2n1` (single isomer, unassigned) [Example I-222], the IC50 on USP28 and against USP25 was 200 to 2000 nM throughout.
With `COc1cc(N2CCNCC2)ccc1CCNC(=O)c1sc2nc(C)ccc2c1N` [Compound I-2], the IC50 against USP28 and against USP25 was < 200 nM each time.
In the case of `Cc1ccc2c(N)c(C(=O)NCCc3ccc(N4CCNCC4)cc3F)sc2n1` [Compound I-5], the IC50 on USP28 and against USP25 was 200 to 2000 nM in each case.
`Cc1ccc2c(N)c(C(=O)NCCc3ccc(N4CCNCC4)c(C4CC4)c3)sc2n1` [Compound I-6]: the IC50 against USP28 is < 200 nM; on USP25 it was 200 to 2000 nM.
The like results for `Cc1cc(C(F)(F)F)c2c(N)c(C(=O)NCCc3ccc(N4CCNCC4)c(F)c3)sc2n1` [Compound I-7] were, in that order, 200 to 2000 nM and < 200 nM.
The like results for `Cc1ccc2c(N)c(C(=O)NCCc3ccc(-c4cnn5c4CNCC5)cc3)sc2n1` [Compound I-12] were, in that order, < 200 nM and 200 to 2000 nM.
Take `Cc1ccc2c(N)c(C(=O)NCCc3ccc(C4CCNCC4)cc3)sc2n1` [Compound I-13]: the results for the IC50 against USP28 and at USP25 were < 200 nM and 200 to 2000 nM, respectively.
For `Cc1cc(C(F)F)c2c(N)c(C(=O)NCCc3ccc(N4CCNCC4)cc3)sc2n1` [Compound I-14] the same measures were < 200 nM and < 200 nM.
On to `Cc1ccc2c(N)c(C(=O)NCCc3ccc(N4CC5CCC(C4)N5)cc3)sc2n1` [Compound I-15], for which the IC50 at USP28 was < 200 nM; against USP25, 200 to 2000 nM.
In the case of `Nc1cc(C(F)F)c2c(N)c(C(=O)NCCc3ccc(N4CCNCC4)cc3)sc2n1` [Compound I-16], the values for the IC50 against USP28 and on USP25 were < 200 nM and 200 to 2000 nM, respectively.
For `Cc1cc(N)nc2sc(C(=O)NCCc3ccc(N4CCNCC4)c(Cl)c3)c(N)c12` [Compound I-17] the same measures were 200 to 2000 nM and 2000 to 10000 nM.
The like results for `Cc1ccc2c(N)c(C(=O)NCCc3ccc(N4CCNCC4)c4c3CCC4)sc2n1` [Compound I-18] were, in that order, < 200 nM and < 200 nM.
The like results for `Cc1ccc2c(N)c(C(=O)NCCc3ccc(N4CC5CCC(C4)N5)c(Cl)c3)sc2n1` [Compound I-20] were, in that order, 200 to 2000 nM and 200 to 2000 nM.
